# In PubChem BioAssay AID1963838 (Molecular Pharmacology Branch, DTP, NCI, 2024):
# Values joined by “and” are separate entries in the source; they are usually repeats but may differ in a detail not shown here. Identical values can stand only once.
# Test system: 855422-203-R-J1-PDC complex spheroid viability
# Experiment: Anticancer human tumor 855422-203-R-J1-PDC patient-derived bladder carcinoma cell line growth inhibition [POLQ]
# Conditions: for viability, T/C: stronger effect = lower value; for IC50: curve of compound
# Procedure: Multicellular complex tumor spheroid response to Polymerase (POL) inhibitors (novobiocin, ART-558, RP6685) in combination with a variety of drugs and investigational agents in selected tumor cell lines
# The POL inhibitors (novobiocin, ART-558, and RP6685) were evaluated both individually and in combination with standard of care and investigational anticancer small molecules within a complex spheroid model of solid tumors. . Complex spheroids include a stromal component modeled by human endothelial cells (HUVEC) and fibroblasts modeled by human mesenchymal stem cells (MSCs). The concentration ranges selected for each drug and investigational agent were based upon clinically achievable concentrations if the clinical Cmax of the agent was known.
# Compounds. The drugs and investigational agents: novobiocin (NSC847541), ART-558 (NSC835418), RP-6685 (NSC848927), peposertib (NSC802822), ceralasertib (NSC780249), elimusertib (NSC800525), camonsertib (NSC841442), AZD-1390 (NSC803789), olaparib (NSC753686), talazoparib (NSC767125), rucaparib (NSC756644), sotorasib (NSC818433), MRTX-1133 (NSC836407), SN-38 (NSC673596), topotecan (NSC609699), epotoside (NSC141540), doxorubicin (NSC123127), gemcitabine (NSC613327), 5-fluorouracil (NSC19893), paclitaxel (NSC125973), vemurafenib (NSC761431), MSA-2 (NSC828583), SN-011 (NSC837082), adavosertib (NSC754352), prexasertib (NSC758257), carboplatin (NSC241240) and oxaliplatin (NSC266046), were obtained from the National Cancer Institute (NCI) Developmental Therapeutics Program Chemical Repository (21). The FDA-approved anticancer drug set is available from the Developmental Therapeutics Program at https://dtp.cancer.gov/organization/dscb/obtaining/. […] The stock solutions were prepared in dimethyl sulfoxide (DMSO, Sigma-Aldrich, St. Louis, MO, cat. D2650), except for the platinum compounds which were prepared in saline (Quality Biological, Gaithersburg, MD, cat. 114-055-101), at 800-fold the tested concentration and stored at -70 degrees C prior to their use. All drugs and investigational agents were tested over a range starting from a high concentration at or near the clinical Cmax and decreasing in half-log increments. If the clinical Cmax for an agent had not been determined, the highest concentration tested was 10 microM, except for SN-38, which was tested at a high concentration of 1 microM.
# Cell Culture. All cells were maintained in an incubator at 37 degrees C and 5% CO2 with 95% humidity. The PDC lines were cultured according to standard operating procedures established by the NCI PDMR (https://pdmr.cancer.gov). Table 3 of the manuscript, lists the cell lines along with the number of the three cell types plated to form the mct-spheroids and media for tumor cell growth. After thawing, all PDC lines, except 997537-175-T-J1-PDC and 415267-285-R-J2-PDC, were cultured in Matrigel-coated flasks prepared with a working solution of 1X Ham's F-12 nutrient mix, without supplementation (Thermo Fisher Scientific, cat. 11765054), 100 U/mL penicillin-streptomycin (Thermo Fisher Scientific, cat. 15140122), and 2.5% Matrigel (Corning Inc., Corning, NY, cat. 354248) for the first three passages. The two PDC lines 997537-175-T-J1-PDC and 415267-285-R-J2-PDC were cultured on uncoated flasks. The 857933-349-R-J2-PDC line was cultured in 6C/Colon 1B media containing advanced DMEM/F-12 (Thermo Fisher Scientific, cat. 12634028), 10 mM HEPES (Thermo Fisher Scientific, cat. 15630080), 1X GlutaMAX supplement (Thermo Fisher Scientific, cat. 35050061), 0.1 mg/mL primocin (InvivoGen, San Diego, CA, cat. ant-pm-2), 10% defined fetal bovine serum, heat inactivated (HyClone Laboratories Inc., Logan, UT, cat. SH30070.03HI), 50% L-WRN conditioned media (ATCC, cat. CRL-3276), 1.25 mM N-Acetyl-L-cysteine (Sigma-Aldrich, cat. A9165), 10 mM nicotinamide (Sigma-Aldrich, cat. N0636), 1X B-27 supplement (Thermo Fisher Scientific, cat. 17504044), 1X N-2 supplement (Thermo Fisher Scientific, cat. […]
# 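Note: spheroids exposed to compounds for seven days before readout.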
SMILES,"viability, T/C (compound 0.0316 µM)","viability, T/C (compound 0.1 µM)","viability, T/C (compound 0.316 µM)","viability, T/C (compound 1 µM)","viability, T/C (compound 3.16 µM)","viability, T/C (compound 10 µM)",IC50,"viability, T/C (compound 0.00316 µM)","viability, T/C (compound 0.01 µM)","viability, T/C (compound 0.00949 µM)","viability, T/C (compound 0.03 µM)","viability, T/C (compound 0.0949 µM)","viability, T/C (compound 0.3 µM)","viability, T/C (compound 0.949 µM)","viability, T/C (compound 3 µM)","viability, T/C (compound 0.000316 µM)","viability, T/C (compound 0.001 µM)"
C#Cc1c(F)ccc2cc(O)cc(-c3ncc4c(N5CC6CCC(C5)N6)nc(OCC56CCCN5CC(F)C6)nc4c3F)c12 (stereo unspecified),120% and 105% and 97.1%,106% and 100% and 107%,87.3% and 94.5% and 105%,98.4% (2×) and 94.2%,97.4% and 109% and 119%,104% and 98% and 121%,> 10 µM,,,,,,,,,,
C=CC(=O)N1CCN(c2nc(=O)n(-c3c(C)ccnc3C(C)C)c3nc(-c4c(O)cccc4F)c(F)cc23)C(C)C1 (stereo unspecified),106% and 101% and 103%,89% and 126% and 115%,117% and 111% and 114%,101% and 130% and 102%,129% and 144% and 132%,127% and 135% and 113%,> 10 µM,,,,,,,,,,
C=CCn1c(=O)c2cnc(Nc3ccc(N4CCN(C)CC4)cc3)nc2n1-c1cccc(C(C)(C)O)n1,106% and 108% and 122%,90.9% and 98.5% and 98%,118% and 116% and 99.9%,94.8% and 187% and 136%,,,> 1 µM,100% and 104% and 107%,100% and 120% and 111%,,,,,,,,
CC(=O)O[C@H]1C(=O)[C@@]2(C)[C@H]([C@H](OC(=O)c3ccccc3)[C@]3(O)C[C@H](OC(=O)[C@H](O)[C@@H](NC(=O)c4ccccc4)c4ccccc4)C(C)=C1C3(C)C)[C@]1(OC(C)=O)CO[C@@H]1C[C@@H]2O,,,,,,,< 0.00949 µM,,,13.3% and 11.4% and 6.22%,9.21% and 8.32% and 5.81%,10.3% and 7.91% and 5.5%,7.66% and 7.33% and 5.13%,6.14% and 7.78% and 6.34%,7.69% and 7.6% and 7.01%,,
CC(C)n1c(=O)n(C)c2cnc3cc(F)c(-c4ccc(OCCCN5CCCCC5)nc4)cc3c21,100% and 106% and 98.1%,96.9% and 119% and 91.5%,103% and 111% and 98.1%,97.5% and 101% and 93%,83.8% and 95.1% and 86.4%,56.6% and 97.9% and 74.8%,> 10 µM,,,,,,,,,,
CC1COCCN1c1cc(-c2ccnn2C)c2ccnc(-c3ccn[nH]3)c2n1 (stereo unspecified),99.3% and 108% and 116%,70.3% and 81.8% and 110%,23.4% and 22.9% and 30.8%,11.2% and 11% and 16.2%,8.42% and 8.52% and 10.7%,6.55% and 7.74% and 10.3%,0.165 µM and 0.186 µM and 0.239 µM,,,,,,,,,,
CC1COCCN1c1cc(C2(O)CC3CCC(C2)O3)c2cnn(-c3ccn[nH]3)c2n1 (stereo unspecified),98.5% and 101% and 111%,49.5% and 43.5% and 74.9%,15.2% and 14.2% and 20.3%,10.6% and 9.31% and 13.1%,6.4% and 7.44% and 9.6%,3.63% and 5.73% and 6.18%,0.0982 µM and 0.0876 µM and 0.17 µM,,,,,,,,,,
CC1COCCN1c1cc(C2(S(C)(=N)=O)CC2)nc(-c2ccnc3[nH]ccc23)n1 (stereo unspecified),97.2% and 103% and 97.7%,101% (2×) and 94.1%,109% and 115% and 116%,97.7% and 154% and 117%,37.8% and 46% and 35.8%,9.87% and 13% and 14.6%,2.5 µM and 2.96 µM and 2.52 µM,,,,,,,,,,
CCCS(=O)(=O)Nc1ccc(F)c(C(=O)c2c[nH]c3ncc(-c4ccc(Cl)cc4)cc23)c1F,106% and 96.3% and 94.9%,97.9% and 102% and 107%,117% and 97.8% and 105%,96.7% and 100% and 109%,113% (2×) and 108%,7.16% and 6.83% and 1.07%,6.08 µM and 5.93 µM and 5.81 µM,,,,,,,,,,
CC[C@@]1(O)C(=O)OCc2c1cc1n(c2=O)Cc2cc3c(CN(C)C)c(O)ccc3nc2-1,54.6% and 99.2% and 57.2%,10.1% and 17.6% and 11.1%,,,,,0.0359 µM and 0.0631 µM and 0.0371 µM,105% and 98.4% and 122%,90.4% and 90% and 93.3%,,,,,,,113% and 104% and 102%,102% (2×) and 109%
CCc1c2c(nc3ccc(O)cc13)-c1cc3c(c(=O)n1C2)COC(=O)[C@]3(O)CC,6.94% and 13.9% and 6.52%,5.24% and 8.86% and 5.52%,3.34% and 4.22% (2×),1.24% and 3.11% and 2.06%,,,0.00329 µM and 0.0077 µM and < 0.00316 µM,51.3% and 111% and 38.4%,12.8% and 30.6% and 13.8%,,,,,,,,
CCc1cc2c(N3CCc4c(cc(Cn5ccnc5)cc4-c4cn(C)nc4C(F)(F)F)C3=O)cc(C)nc2c(OC)n1,89.8% and 99.4% and 115%,81.6% and 103% and 101%,74.5% and 132% and 120%,62.8% and 85.8% and 94.5%,49.1% and 62% and 75.6%,26.1% and 50.8% and 38.6%,2.62 µM and > 10 µM and 6.96 µM,,,,,,,,,,
CCc1cc2c(N3CCc4c(cc(Cn5ccnc5)cc4-c4cn(C)nc4C(F)(F)F)C3=O)ccnc2c(OC)n1,83.3% and 126% and 119%,84.9% and 133% and 116%,73.8% and 136% and 139%,74.3% and 100% and 104%,47.2% and 73.1% and 78.9%,32.6% and 47.8% and 46.6%,2.87 µM and 9.66 µM and 8.96 µM,,,,,,,,,,
